Test results published in patent publication US6413997B1, “3-(substituted phenyl)-5-(substituted heterocyclyl)-1,2,4-triazole compounds” (priority 1998, dated 2002).

Columns and labels:
Type in all cases: in vivo
[1] = system: twospotted spider mite (tetranychus uriticae); test: Two-spotted spider mite test, ovicide method on cotton leaf discs; settings: leaf disc dip, 6 days, hatched larvae versus untreated discs
Description: Insecticidal Test for Two-spotted Spider Mite (Tetranychus urticae)
Ten adult female two-spotted spider mites were placed on eight 2.2 cm leaf discs of cotton leaf, allowed to oviposit over 24 hours, and thereafter removed. The leaf discs were immersed in 100 ppm test solutions for 3 seconds, then allowed to dry with sixteen discs left untreated as a negative control. Discs were placed on an agar substrate and held at 24° C. and 90% relative humidity for 6 days.

[2] = system: sweetpotato whitefly (bemisia tabaci); test: Sweetpotato whitefly test on cotton plants under laboratory conditions; settings: 800 ppm (table footnote), spray on cotton plants with eggs, 21 days, spent pupal cases versus solution-only plants
Description: Evaluation of Tests Compounds on Sweetpotato Whitefly (Bemisia tabacia) Under Laboratory Conditions
Four mg of each test compound was dissolved by adding 5 ml of a 90:10 acetone:ethanol solvent mixture to the vial containing the sample compound. […]
Five-week-old cotton plants reared in a greenhouse were stripped of all foliage except for the two uppermost true leaves that were greater than 5 cm in diameter. These plants were then placed into a laboratory colony of whiteflies for three days for oviposition by the colony females. All whiteflies were then removed from the test plants with pressurized air. The spray solution was then applied to the test plants with a hand-held syringe fitted with hollow cone nozzle. One mL spray solution was applied to each leaf top and bottom for a total of 4 mL per plant. Four replications of each test compound utilized a total of 16 mL spray solution. Plants were air dried and then placed in a holding chamber (26° C. and 40% RH for 21 days. Compound efficacy was evaluated by counting, under a dissecting microscope, the number of spent pupal cases per leaf. A spent pupal case represents a whitefly egg that has undergone full development to achieve adult status, thus indicating lack of control.
Percent control based on reduction of spent pupal cases of a test compound compared to solution-only (no test compound sprayed plants is reported in Table 1.

[3] = system: cotton aphids (aphis gossypii); test: Insecticidal test for cotton aphid, foliar spray on infested squash cotyledons; settings: 50 ppm spray, graded after 3 days, versus untreated check
Description: Insecticidal Test for Cotton Aphid (Aphis gossypii)
To prepare spray solutions, 2 mg of each test compound was dissolved into 2 mL of a 90:10 acetone:ethanol solvent. This 2 mL of chemical solution was added to 38 mL of water containing 0.05% Tween 20 surfactant to produce a 50 ppm spray solution.
Squash cotyledons were infested with cotton aphid (all life stages16-20 hours prior to application of spray solution. The solution was sprayed on both sides of each infested squash cotyledon (0.5 mL×2 each side with a sweeping action using a total of 2 mL of spray solution. The plants were allowed to air dry and held for 3 days in a controlled room at 26° C. and 40% RH after which time the test was graded. Grading was by actual count using a dissecting microscope and comparison of test counts to the untreated check. Results are given in Table 1 as percent control based on population reduction versus the untreated.

SMILES	TSSM: activity at 100 ppm against twospotted spider mite (rating of % mortality / percent control) [1]	WF: activity at 800 ppm against sweetpotato whitefly (rating of % mortality / percent control) [2]	CA: activity at 50 ppm against cotton aphids (rating of % mortality / percent control) [3]	mortality at 100 ppm ([1]; foliar, 144 h, read-out: TSSM: activity at 100 ppm against twospotted spider mite (rating of % mortality / percent control)) [%]	mortality at 50 ppm ([3]; Aphis gossypii, foliar, 72 h, read-out: CA: activity at 50 ppm against cotton aphids (rating of % mortality / percent control)) [%]
Cc1cnsc1-c1nc(-c2c(F)cccc2Cl)nn1C [Compound 3]	A (91-100)	G (Inactive)	B (81-90)		
Cn1nc(-c2c(F)cccc2F)nc1-c1snc(C#N)c1Br [Compound 4]	G (Inactive)	G (Inactive)	A (91-100)		
Cn1nc(-c2c(F)cccc2F)nc1-c1snc(-c2ccccc2)c1Br [Compound 7]	G (Inactive)	E (51-60)	B (81-90)		
Cn1nc(-c2c(F)cccc2Cl)nc1-c1snc(-c2ccccc2)c1Br [Compound 8]	C (71-80)	G (Inactive)	B (81-90)		
Cn1nc(-c2c(F)cccc2F)nc1-c1cc(-c2ccc(Cl)cc2)ns1 [Compound 9]		G (Inactive)	E (51-60)		
Cn1nc(-c2c(F)cccc2F)nc1-c1snc(-c2ccc(Cl)cc2)c1Br [Compound 11]	A (91-100)	G (Inactive)	A (91-100)		
Cn1nc(-c2c(F)cccc2Cl)nc1-c1snc(-c2ccc(Cl)cc2)c1Br [Compound 12]	A (91-100)	G (Inactive)	A (91-100)		
Cn1nc(-c2c(F)cccc2F)nc1-c1snc(-c2ccc([N+](=O)[O-])cc2)c1Br [Compound 15]	G (Inactive)	G (Inactive)			
Cn1nc(-c2c(F)cccc2F)nc1-c1snc(-c2cccc(C(F)(F)F)c2)c1Br [Compound 16]	G (Inactive)		B (81-90)		
Cc1cc(-c2nc(-c3c(F)cccc3F)nn2C)on1 [Compound 28]	G (Inactive)	B (81-90)			
Cn1nc(-c2c(F)cccc2F)nc1-c1cc(C(C)(C)C)no1 [Compound 30]	G (Inactive)		D (61-70)		
Cc1ncsc1-c1nc(-c2c(F)cccc2F)nn1C [Compound 37]	A (91-100)		B (81-90)		
Cn1nc(-c2c(F)cccc2F)nc1-c1scnc1Cl [Compound 38]	A (91-100)	G (Inactive)	A (91-100)		
Cc1nc(Cl)sc1-c1nc(-c2c(F)cccc2F)nn1C [Compound 39]	A (91-100)	G (Inactive)	A (91-100)		
Cc1nc(Cl)sc1-c1nc(-c2c(F)cccc2Cl)nn1C [Compound 40]	A (91-100)		A (91-100)		
Cc1nc(Br)sc1-c1nc(-c2c(F)cccc2F)nn1C [Compound 41]	A (91-100)	G (Inactive)	A (91-100)		
Cn1nc(-c2c(F)cccc2F)nc1-c1sc(Cl)nc1Cl [Compound 42]	A (91-100)	G (Inactive)	B (81-90)		

SMILES	TSSM: activity at 100 ppm against twospotted spider mite (rating of % mortality / percent control) [1]	WF: activity at 800 ppm against sweetpotato whitefly (rating of % mortality / percent control) [2]	CA: activity at 50 ppm against cotton aphids (rating of % mortality / percent control) [3]	mortality at 100 ppm ([1]; foliar, 144 h, read-out: TSSM: activity at 100 ppm against twospotted spider mite (rating of % mortality / percent control)) [%]	mortality at 50 ppm ([3]; Aphis gossypii, foliar, 72 h, read-out: CA: activity at 50 ppm against cotton aphids (rating of % mortality / percent control)) [%]
Cc1nc(-c2ccc(C(F)(F)F)cc2)sc1-c1nc(-c2c(F)cccc2F)nn1C [Compound 47]	A (91-100)	G (Inactive)	D (61-70)		
Cc1nc(-c2nc(-c3c(F)cccc3F)nn2C)cs1 [Compound 48]	G (Inactive)		D (61-70)		
Cc1nc(-c2nc(-c3c(F)cccc3Cl)nn2C)cs1 [Compound 49]	C (71-80)				
Cn1nc(-c2c(F)cccc2F)nc1-c1csc(-c2cccs2)n1 [Compound 50]	G (Inactive)	G (Inactive)	A (91-100)		
Cc1ncoc1-c1nc(-c2c(F)cccc2F)nn1C [Compound 55, 3-(2,6-Difluorophenyl)-5-(4-methyloxazol-5-yl)-1-methyl[1,2,4]triazole]				0 to 51	0 to 51
Cn1nc(-c2c(F)cccc2F)nc1-c1snnc1-c1ccccc1 [Compound 58]	C (71-80)	G (Inactive)	A (91-100)		
CCn1nc(C)cc1-c1nc(-c2c(F)cccc2F)nn1C [Compound 60]	G (Inactive)		B (81-90)		
Cc1cc(-c2nc(-c3c(F)cccc3F)nn2C)n(C)n1 [Compound 62]	G (Inactive)	E (51-60)	A (91-100)		
Cc1cc(-c2nc(-c3c(F)cccc3Cl)nn2C)n(C)n1 [Compound 63]	G (Inactive)		A (91-100)		
Cn1nc(-c2c(F)cccc2F)nc1-c1cc(C(C)(C)C)nn1Cc1ccccc1 [Compound 70]	G (Inactive)	E (51-60)	B (81-90)		
CCn1nc(-c2nc(-c3c(F)cccc3Cl)nn2C)cc1C [Compound 74]			A (91-100)		
Cn1cc(Cl)c(-c2nc(-c3c(F)cccc3Cl)nn2C)n1 [Compound 75]	G (Inactive)	B (81-90)			
Cc1nn(C)c(Cl)c1-c1nc(-c2c(F)cccc2Cl)nn1C [Compound 76]	A (91-100)		B (81-90)		
Cn1nc(-c2c(F)cccc2Cl)nc1-c1c(C(F)(F)F)nn(C)c1Cl [Compound 77]	A (91-100)				
CCCc1c(-c2nc(-c3c(F)cccc3F)nn2C)cnn1-c1ccc(Cl)cc1 [Compound 80]	G (Inactive)				
Cc1nc(-c2ccc(Cl)cc2)sc1-c1nc(-c2c(F)cccc2F)nn1C [Compound 90]	A (91-100)				
Cc1nc(C(F)(F)F)sc1-c1nc(-c2c(F)cccc2F)nn1C [Compound 91]			C (71-80)		
